Measurements as given in US8273780B2, “Polycyclic antagonists of lysophosphatidic acid receptors” (Amira Pharmaceuticals, Inc., priority 2009, dated 2012).

Assays:
Human LPA3 = target: T1, Human LPA3 (Homo sapiens, UniProt Q9UBY5); test: LPA3 calcium flux assay; assay type: cell-based; conditions: CHO cells expressing human LPA3, 10 nM LPA; read-out: HLPA3 Ca Flux IC50
T1 construct: The full-length cDNA fragment for human LPA3 was obtained by PCR from the vector; expressed in transfected cells; cDNA from the Missouri S&T cDNA Resource Center
T1 sequence (Q9UBY5 1-353): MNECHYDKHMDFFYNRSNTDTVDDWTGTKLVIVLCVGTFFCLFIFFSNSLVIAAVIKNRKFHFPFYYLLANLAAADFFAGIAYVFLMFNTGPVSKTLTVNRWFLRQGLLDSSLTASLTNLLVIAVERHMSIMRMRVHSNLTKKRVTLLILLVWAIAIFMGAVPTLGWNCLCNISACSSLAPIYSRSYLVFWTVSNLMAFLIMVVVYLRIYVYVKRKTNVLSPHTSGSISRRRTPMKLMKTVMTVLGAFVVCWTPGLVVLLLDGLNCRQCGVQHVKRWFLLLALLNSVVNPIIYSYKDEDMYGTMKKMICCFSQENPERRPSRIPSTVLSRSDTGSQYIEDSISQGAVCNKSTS
Procedure: A vector containing the human LPA3 receptor cDNA was obtained from the Missouri S&T cDNA Resource Center (www.cdna.org). The full-length cDNA fragment for human LPA3 was obtained by PCR from the vector. The nucleotide sequence of the cloned human LPA3 was determined by sequencing and confirmed to be identical to the published human LPA3 sequence (NCBI accession number NM_012152). The cDNA was cloned into the pcDNA5/FRT expression plasmid and transfected in CHO cells using lipofectamine 2000 (Invitrogen Corp., USA). Clones stably expressing human LPA3 were selected using hygromycin and identified as cells that show Ca-influx in response to LPA.
Human LPA1 or LPA3 expressing CHO cells are seeded at 20,000-45,000 cells per well in a 96-well poly-D-lysine coated plate one or two days before the assay. Prior to the assay, the cells are washed once with PBS and then cultured in serum-free media overnight. On the day of the assay, a calcium indicator dye (Calcium 4, Molecular Devices) in assay buffer (HBSS with Ca^2+and Mg^2+ and containing 20 mM Hepes and 0.3% fatty-acid free human serum albumin) is added to each well and incubation continued for 1 hour at 37° C. 10 μl of test compounds in 2.5% DMSO are added to the cells and incubation continued at room temperature for 30 minutes. Cells are the stimulated by the addition of 10 nM LPA and intracellular Ca^2+ measured using the Flexstation 3 (Molecular Devices). IC50s are determined using Graphpad prism analysis of drug titration curves.

[1] = tested on: human A2058 melanoma cells; test: LPA1 chemotaxis assay; assay type: cell-based; conditions: 100 nM LPA, read-out: inhibition of LPA-driven chemotaxis IC50
Procedure: Chemotaxis of the A2058 human melanoma cells was measured using the Neuroprobe ChemoTx® System plates (8 μM pore size, 5.7 mm diameter sites). The filter sites were coated with 0.001% fibronectin (Sigma) in 20 mM Hepes, pH 7.4 and allowed to dry. A2058 cells were serum-starved for 24 hours, then harvested with Cell Stripper and resuspended in DMEM containing 0.1% fatty-acid-free bovine serum albumin (BSA) to a concentration of 1×10^6/ml. Cells were mixed with an equal volume of test compound (2×) in DMEM containing 0.1% fatty-acid-free BSA and incubated at 37° C. for 15 minutes. LPA (100 nM in DMEM containing 0.1% fatty-acid-free BSA) or vehicle was added to each well of the lower chamber and 50 μl of the cell suspension/test compound mix was applied to the upper portion of the ChemoTx plate. Plates were incubated at 37° C. for three hours and then the cells removed from the upper portion by rinsing with PBS and scraping. The filter was dried then stained with HEMA 3 Staining System (Fisher Scientific). The absorbance of the filter was read at 590 nm and IC50s were determined using Symyx Assay Explorer.

C57BL/6 mice = test: Mouse unilateral ureteral obstruction kidney fibrosis model; assay type: in vivo; conditions: compared to untreated group
Procedure: Female C57BL/6 mice (Harlan, 20-25 g) housed 4/cage will be given free access to food and water and allowed to acclimate for at least 7 days prior to test initiation. After the habituation phase, mice undergo unilateral ureteral obstruction (UUO) surgery or sham to left kidney. Briefly, a longitudinal, upper left incision is performed to expose the left kidney. The renal artery is located and 6/0 silk thread is passed between the artery and the ureter. The thread is looped around the ureter and knotted 3 times insuring full ligation of ureter. The kidney is returned to abdomen, the abdominal muscle is sutured and the skin is stapled closed. Mice are returned to their cages and monitored daily for the duration of the experiment. Test compound or vehicle is delivered po, ip or sc daily. The route and frequency of dosing is based on previously determined pharmacokinetic properties. All animals are sacrificed using inhaled isoflurane 4, 8 or 14 days after UUO surgery. Following sacrifice blood is drawn via cardiac puncture, the kidneys are harvested and one half of the kidney is frozen at −80° C. and the other half is fixed in 10% neutral buffered formalin for histological assessment of kidney fibrosis using light microscopy (10× magnification). Kidney tissue homogenates are analyzed for collagen levels using Sircol (Biocolor Ltd, UK). Fixed kidney tissue is also stained using hematoxylin and eosin (H&E) and trichrome and kidney fibrosis is determined by quantitative, computer-assisted densitometry of collagen in […] tissue sections using light microscopy and collagen content in kidney lysate. Plasma and kidney tissue lysates are also analyzed for concentrations of inflammatory, pro-fibrotic and tissue injury biomarkers including transforming growth factor β1, hyaluronic acid, tissue inhibitor of metalloproteinase-1, and plasminogen activator inhibitor-1, using commercially available ELISA. The resulting data are plotted using Graphpad prism and statistical differences between groups determined.

BALB/c mice = test: Mouse dermal vascular leak assay; assay type: in vivo; conditions: 30 mg/kg oral gavage, three hours before dye; intradermal LPA 30 μg
Procedure: Female BALB/c mice (Harlan) weighing 20-25 grams were given free access to standard mouse chow and water and were allowed to acclimate for two weeks prior to study initiation. Compound 1 was prepared in water vehicle at a concentration of 3 mg/ml and delivered by oral gavage at a volume of 10 ml/kg to yield a dose of 30 mg/kg. Three hours following dose, mice were placed into a restraining device and given Evan's blue dye intravenously by tail vein injection (0.2 ml of a 0.5% solution). Mice were then anesthetized using 3% isoflurane anaesthesia to allow for intradermal injection of LPA (30 μg in 20 μl 0.1% fatty acid free BSA). Thirty minutes after LPA injection mice were sacrificed by CO2 inhalation and the skin removed from the challenge site and placed into 2 ml formamide for overnight extraction of Evan's blue dye.
Following extraction, a 150 μl aliquot of formamide for each tissue sample was placed into a 96 well plate and read at 610 nm using a photospectometer. The resulting data (OD units) were plotted using GraphPad Prizm. In this experiment compound 1 reduced LPA-induced Evan's blue dye leak into the skin.

- IC50 (Human LPA3): 1000 to 10000 nM
- IC50 [1]: < 100 nM
Compound: Cc1noc(-c2ccc(-c3ccc(C4(C(=O)O)CC4)cc3)cc2)c1NC(=O)O[C@H](C)c1ccccc1 [Compound 1, 1-{4′-[3-Methyl-4-((R)-1-phenyl-ethoxycarbonylamino)-isoxazol-5-yl]-biphenyl-4-yl}-cyclopropanecarboxylic acid]
- hyaluronic acid (C57BL/6 mice): reduced
- plasminogen activator inhibitor-1 (C57BL/6 mice): reduced
- tissue inhibitor of metalloproteinase-1 (C57BL/6 mice): reduced
- total kidney collogen (C57BL/6 mice): reduced
- transforming growth factor β1 (C57BL/6 mice): reduced
- collagen Type 1 (C57BL/6 mice; kidney): reduced
- LPA-induced Evan's blue dye leak into the skin (BALB/c mice): reduced
